Assay results from PubChem BioAssay (NCI).
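Exposure lasted 48 hours, with cells grown in 96-well plates and compounds tested at five concentrations. At the TGI there is no net growth.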

Key:
Experiment in all cases: NCI-60 cell line screen, 48 h
OVCAR-4 ovarian = test system: OVCAR-4 ovarian
ACHN renal = test system: ACHN renal
UACC-257 melanoma = test system: UACC-257 melanoma
OVCAR-5 ovarian = test system: OVCAR-5 ovarian
MDA-MB-435 = test system: MDA-MB-435
A549 NSCLC = test system: A549 NSCLC
T-47D breast = test system: T-47D breast
U251 CNS = test system: U251 CNS
SNB-19 CNS = test system: SNB-19 CNS
SF-539 CNS = test system: SF-539 CNS
HS 578T breast = test system: HS 578T breast
CCRF-CEM leukemia = test system: CCRF-CEM leukemia
SK-MEL-2 melanoma = test system: SK-MEL-2 melanoma
SF-268 CNS = test system: SF-268 CNS
MCF7 breast = test system: MCF7 breast
HT29 colon = test system: HT29 colon
UO-31 renal = test system: UO-31 renal
HCT-15 colon = test system: HCT-15 colon
SK-OV-3 ovarian = test system: SK-OV-3 ovarian
NCI/ADR-RES ovarian = test system: NCI/ADR-RES ovarian
IGROV1 ovarian = test system: IGROV1 ovarian
SK-MEL-28 melanoma = test system: SK-MEL-28 melanoma
UACC-62 melanoma = test system: UACC-62 melanoma
MDA-MB-231 breast = test system: MDA-MB-231 breast
BT-549 breast = test system: BT-549 breast
SN12C renal = test system: SN12C renal
HL-60(TB) leukemia = test system: HL-60(TB) leukemia
SW-620 colon = test system: SW-620 colon
COLO 205 colon = test system: COLO 205 colon
A498 renal = test system: A498 renal
M14 melanoma = test system: M14 melanoma
CAKI-1 renal = test system: CAKI-1 renal
HCT-116 colon = test system: HCT-116 colon
PC-3 prostate = test system: PC-3 prostate
OVCAR-8 ovarian = test system: OVCAR-8 ovarian
SNB-75 CNS = test system: SNB-75 CNS
NCI-H522 lung = test system: NCI-H522 lung
MOLT-4 leukemia = test system: MOLT-4 leukemia
HOP-92 NSCLC = test system: HOP-92 NSCLC
NCI-H23 lung = test system: NCI-H23 lung
TK-10 renal = test system: TK-10 renal
SK-MEL-5 melanoma = test system: SK-MEL-5 melanoma
DU-145 prostate = test system: DU-145 prostate
HOP-62 NSCLC = test system: HOP-62 NSCLC
SF-295 CNS = test system: SF-295 CNS
OVCAR-3 ovarian = test system: OVCAR-3 ovarian
EKVX NSCLC = test system: EKVX NSCLC
RXF 393 renal = test system: RXF 393 renal
786-0 renal = test system: 786-0 renal
MDA-N = test system: MDA-N
RPMI-8226 leukemia = test system: RPMI-8226 leukemia
LOX IMVI melanoma = test system: LOX IMVI melanoma
NCI-H460 lung = test system: NCI-H460 lung
KM12 colon = test system: KM12 colon
NCI-H226 lung = test system: NCI-H226 lung
HCC-2998 colon = test system: HCC-2998 colon
K-562 leukemia = test system: K-562 leukemia
MALME-3M melanoma = test system: MALME-3M melanoma
SR leukemia = test system: SR leukemia

Compound: Nc1nc(N)c2nn(-c3ccc(C(=O)O)cc3)nc2n1
- TGI (OVCAR-4 ovarian): > 100000 nM
- TGI (ACHN renal): > 100000 nM
- TGI (UACC-257 melanoma): > 100000 nM
- TGI (OVCAR-5 ovarian): > 100000 nM
- TGI (MDA-MB-435): > 100000 nM
- TGI (A549 NSCLC): > 100000 nM
- TGI (T-47D breast): > 100000 nM
- TGI (U251 CNS): > 100000 nM
- TGI (SNB-19 CNS): > 100000 nM
- TGI (SF-539 CNS): > 100000 nM
- TGI (HS 578T breast): > 100000 nM
- TGI (CCRF-CEM leukemia): > 100000 nM
- TGI (SK-MEL-2 melanoma): > 100000 nM
- TGI (SF-268 CNS): > 100000 nM
- TGI (MCF7 breast): > 100000 nM
- TGI (HT29 colon): > 100000 nM
- TGI (UO-31 renal): > 100000 nM
- TGI (HCT-15 colon): > 100000 nM
- TGI (SK-OV-3 ovarian): > 100000 nM
- TGI (NCI/ADR-RES ovarian): > 100000 nM
- TGI (IGROV1 ovarian): > 100000 nM
- TGI (SK-MEL-28 melanoma): > 100000 nM
- TGI (UACC-62 melanoma): > 100000 nM
- TGI (MDA-MB-231 breast): > 100000 nM
- TGI (BT-549 breast): > 100000 nM
- TGI (SN12C renal): > 100000 nM
- TGI (HL-60(TB) leukemia): > 100000 nM
- TGI (SW-620 colon): > 100000 nM
- TGI (COLO 205 colon): > 100000 nM
- TGI (A498 renal): > 100000 nM
- TGI (M14 melanoma): > 100000 nM
- TGI (CAKI-1 renal): > 100000 nM
- TGI (HCT-116 colon): > 100000 nM
- TGI (PC-3 prostate): > 100000 nM
- TGI (OVCAR-8 ovarian): > 100000 nM
- TGI (SNB-75 CNS): > 100000 nM
- TGI (NCI-H522 lung): > 100000 nM
- TGI (MOLT-4 leukemia): > 100000 nM
- TGI (HOP-92 NSCLC): > 100000 nM
- TGI (NCI-H23 lung): > 100000 nM
- TGI (TK-10 renal): > 100000 nM
- TGI (SK-MEL-5 melanoma): > 100000 nM
- TGI (DU-145 prostate): > 100000 nM
- TGI (HOP-62 NSCLC): > 100000 nM
- TGI (SF-295 CNS): > 100000 nM
- TGI (OVCAR-3 ovarian): > 100000 nM
- TGI (EKVX NSCLC): > 100000 nM
- TGI (RXF 393 renal): > 100000 nM
- TGI (786-0 renal): > 100000 nM
- TGI (MDA-N): > 100000 nM
- TGI (RPMI-8226 leukemia): > 100000 nM
- TGI (LOX IMVI melanoma): > 100000 nM
- TGI (NCI-H460 lung): > 100000 nM
- TGI (KM12 colon): > 100000 nM
- TGI (NCI-H226 lung): > 100000 nM
- TGI (HCC-2998 colon): > 100000 nM
- TGI (K-562 leukemia): > 100000 nM

Compound: O=C1c2cccc3cc4ccccc4c(c23)C(=O)N1CCCNCCNCCCN1C(=O)c2cccc3cc4ccccc4c(c23)C1=O
- TGI (OVCAR-4 ovarian): 1580 nM
- TGI (ACHN renal): 1600 nM
- TGI (UACC-257 melanoma): 2250 nM
- TGI (OVCAR-5 ovarian): 1980 nM
- TGI (MDA-MB-435): 1730 nM
- TGI (A549 NSCLC): 373 nM
- TGI (T-47D breast): 2540 nM
- TGI (U251 CNS): 1730 nM
- TGI (SNB-19 CNS): 2230 nM
- TGI (SF-539 CNS): 1450 nM
- TGI (HS 578T breast): 1980 nM
- TGI (SF-268 CNS): 2180 nM
- TGI (HT29 colon): 555 nM
- TGI (UO-31 renal): 1960 nM
- TGI (HCT-15 colon): 1360 nM
- TGI (SK-OV-3 ovarian): 1650 nM
- TGI (IGROV1 ovarian): 1720 nM
- TGI (MDA-MB-231 breast): 1660 nM
- TGI (BT-549 breast): 2400 nM
- TGI (SN12C renal): 1860 nM
- TGI (HL-60(TB) leukemia): 8280 nM
- TGI (A498 renal): 1910 nM
- TGI (M14 melanoma): 2210 nM
- TGI (CAKI-1 renal): 1520 nM
- TGI (HCT-116 colon): 168 nM
- TGI (MALME-3M melanoma): 1800 nM
- TGI (PC-3 prostate): 1430 nM
- TGI (OVCAR-8 ovarian): 337 nM
- TGI (SNB-75 CNS): 1480 nM
- TGI (NCI-H522 lung): 1460 nM
- TGI (MOLT-4 leukemia): 1360 nM
- TGI (NCI-H23 lung): 1770 nM
- TGI (TK-10 renal): 2180 nM
- TGI (SK-MEL-5 melanoma): 1390 nM
- TGI (DU-145 prostate): 2040 nM
- TGI (HOP-62 NSCLC): 1720 nM
- TGI (SF-295 CNS): 1640 nM
- TGI (OVCAR-3 ovarian): 1860 nM
- TGI (EKVX NSCLC): 2370 nM
- TGI (SR leukemia): 1510 nM
- TGI (RXF 393 renal): 1580 nM
- TGI (786-0 renal): 1690 nM
- TGI (MDA-N): 1820 nM
- TGI (RPMI-8226 leukemia): 387 nM
- TGI (NCI-H460 lung): 161 nM
- TGI (KM12 colon): 1290 nM
- TGI (HCC-2998 colon): 1710 nM
- TGI (K-562 leukemia): 337 nM
